# Laboratory results: the supplement of paper PMC10307832
# Tests used:
# Assay in all cases: relative viability (nuclei count vs DMSO), 5 days (fraction); higher = more cells survive
# IDH-C35 + Decitabine = compound: Cc1ccccc1C(C(=O)NC1CCCCC1)N(C(=O)Cn1ccnc1C)c1cccc(F)c1 [IDH-C35] + Nc1ncn([C@H]2C[C@H](O)[C@@H](CO)O2)c(=O)n1 [Decitabine] (partner 2 µM)
# Summary of the method: (§1)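 Lung cancer cell lines in 1536-well plates got either a single drug or a fixed anchor-drug dose together with five library-drug doses (not always all listed) in √10 steps, by pin tool, on the day after seeding. Nuclei were counted after 5 days, and relative viability is the treated-to-vehicle ratio of nuclei counts. Values are medians of duplicate plates.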
# IDH-C35 + Dasatinib = compound: Cc1ccccc1C(C(=O)NC1CCCCC1)N(C(=O)Cn1ccnc1C)c1cccc(F)c1 [IDH-C35] + Cc1nc(Nc2ncc(C(=O)Nc3c(C)cccc3Cl)s2)cc(N2CCN(CCO)CC2)n1 [Dasatinib] (partner 0.075 µM)
# Summary of the method: as §1
# IDH-C35 + Vorinostat = compound: Cc1ccccc1C(C(=O)NC1CCCCC1)N(C(=O)Cn1ccnc1C)c1cccc(F)c1 [IDH-C35] + O=C(CCCCCCC(=O)Nc1ccccc1)NO [Vorinostat] (partner 1 µM)
# Summary of the method: as §1
# [1] = compound: CC1=C(C(=NN1)C)CC2=C(C3=C(S2)N(C(=O)N(C3=O)C)CC(C)C)C(=O)N4C[C@@H](CO4)O + O=C(CCCCCCC(=O)Nc1ccccc1)NO [Vorinostat] (partner 1 µM)
# Summary of the method: as §1
Cell Line,relative viability (IDH-C35 + Decitabine; first compound 0.08 µM),relative viability (IDH-C35 + Decitabine; first compound 0.253 µM),relative viability (IDH-C35 + Decitabine; first compound 0.8 µM),relative viability (IDH-C35 + Decitabine; first compound 2.53 µM),relative viability (IDH-C35 + Decitabine; first compound 8 µM),relative viability (IDH-C35 + Dasatinib; first compound 0.08 µM),relative viability (IDH-C35 + Dasatinib; first compound 0.253 µM),relative viability (IDH-C35 + Dasatinib; first compound 0.8 µM),relative viability (IDH-C35 + Dasatinib; first compound 2.53 µM),relative viability (IDH-C35 + Dasatinib; first compound 8 µM),relative viability (IDH-C35 + Vorinostat; first compound 0.08 µM),relative viability (IDH-C35 + Vorinostat; first compound 0.253 µM),relative viability (IDH-C35 + Vorinostat; first compound 0.8 µM),relative viability (IDH-C35 + Vorinostat; first compound 2.53 µM),relative viability (IDH-C35 + Vorinostat; first compound 8 µM),relative viability ([1]; first compound 0.0025 µM),relative viability ([1]; first compound 0.007906 µM),relative viability ([1]; first compound 0.025 µM),relative viability ([1]; first compound 0.07906 µM),relative viability ([1]; first compound 0.25 µM)
NCI-H2342,0.719,0.745,0.757,0.714,0.744,0.308,0.381,0.32,0.374,0.299,0.817,0.712,0.793,0.715,0.806,0.611,0.766,0.709,0.656,0.644
SK-MES-1,0.294,0.39,0.379,0.362,0.377,0.433,0.353,0.424,0.355,0.336,1.18,1.08,1.04,1.2,1.02,1.19,1.23,1.1,1.05,1.16
HCC-366,0.359,0.344,0.403,0.288,0.324,0.763,0.67,0.669,–,0.596,0.49,0.351,0.321,0.371,0.404,0.438,0.365,0.348,0.399,0.447
201T,0.871,0.839,0.86,0.839,0.836,0.575,0.569,0.607,0.582,0.529,1,0.942,0.946,0.641,0.951,0.979,1.02,0.951,0.952,0.973
HCC-827,0.309,0.318,0.282,0.317,0.296,0.328,0.263,0.29,0.32,0.382,0.731,0.85,0.811,0.789,0.868,0.805,0.91,0.837,0.843,1.01
NCI-H647,0.45,0.344,0.401,0.42,0.366,0.194,0.204,0.198,0.223,0.192,0.541,0.565,0.577,0.769,0.528,0.564,0.744,0.473,0.617,0.606
NCI-H2023,0.231,0.22,0.259,0.233,0.265,0.59,0.549,0.673,0.517,0.559,0.667,0.799,0.68,0.634,0.636,0.621,0.797,0.645,0.545,0.636
NCI-H520,0.407,0.462,0.538,0.508,0.486,0.191,0.159,0.202,0.181,0.217,0.68,0.728,0.899,0.669,0.699,0.678,0.777,0.594,0.577,0.684
